Laboratory results: patent US20050009005A1, “Methods of using quantitative lipid metabolome data” (Lipomics Technologies, Inc., priority 2001, published 2005)

System: de novo fatty acid synthesis
Assay: Lipid metabolite profile of plasma, heart, liver and inguinal adipose of CL316,243-treated mice (trial 2; Tables 7 and 8)
Assay type: in vivo
Conditions: for Total n9 / 14:0 / 16:0 / 16:1n7 / 18:0 / 18:1n7 / 18:1n9 / Saturates / Total n7 / Total nMole of FA: mean
Excerpt: It is understood that the described methods can be used to analyze lipid metabolites from other subjects, including particularly animals other than mice.
Mouse tissue and plasma samples were a generous donation to Lipomics Technologies, Inc., from Dr. Edward Leiter of the Jackson Laboratory (Bar Harbor, Me.). Samples included the plasma, heart, liver and inguinal adipose of mice treated with pharmaceuticals or their corresponding controls.
In trial 2, male, inbred NON mice were fed a control with or without the presence of the β-3 adrenergic agonist CL316,243 for four weeks (at 0.001% CL316,243 by weight in the dietary chow).
In both studies, five treated and five control mice were used. Following the treatments and the killing of the mice, tissues and plasma were taken, chilled to −80 ° C. and shipped to the analysis laboratory at Lipomics Technologies in a frozen state.
Tissue processing and lipid extraction, including provision of internal standards, was carried out essentially as described in Watkins et al. (J. Lipid Res. Papers in Press, 10.1184/jlf.M200169-JLF200, published August 16, 2002), and in co-owned international application PCT/US02/21426, entitled “GENERATING, VIEWING, INTERPRETING, AND UTILIZING A QUANTITATIVE DATABASE OF METABOLITES,” both of which are incorporated in their entirety herein by reference.
The separation of lipid classes was performed in some instance by preparative thin-layer chromatography (TLC). To remove any residual metal or other damaging contaminants on the TLC plates, each plate was washed prior to use. Washing the plates is a three-step process that involves impregnating each plate with ethylenediamine tetraacetic acid (EDTA) and rinsing the plates once with methanol and once with chloroform. Each plate is first impregnated with 1 mM EDTA, pH 5.5, by ascending development using the method of Ruiz (J. Lipid Res. 38, 1482-1489, 1997). After each plate was completely developed, it was dried in air overnight. Once dry, each plate was developed in methanol, dried, and developed in chloroform in the same direction as the development with EDTA. The washed plates were then dried in air. Just prior to use, each plate was activated by heating to 110° C. for 10 minutes.
To prepare the TLC chamber for chromatography, Whatman (Clifton, N.J.) filter paper was cut into 20×80-cm strips and wrapped around the inside wall of a 30×60×10-cm glass development chamber. One hundred milliliters of the appropriate mobile phase was added to the chamber, and the chambers were sealed and allowed to equilibrate. Chambers were considered equilibrated when the solvent front had completely ascended the filter paper. The mobile phase employed for the separation of phospholipid classes (lyso-phospholipids, sphingomyelin, phosphatidylcholine, phosphatidylserine, phosphatidylethanolamine and cardiolipin) was a modification of the solvent system described by Holub and Skeaf (“Nutritional regulation of cellular phosphatidylinositol,” in Methods in Enzymology, ed. Conn, P. M. (Academic Press, Inc., Orlando), pp. 234-243, 1987) consisting of chloroform/methanol/acetic acid/water (100:67:7:4, by volume).
For the separation of neutral lipid classes (free fatty acids, free sterols, triacylglycerides and cholesterol esters), a solvent system consisting of petroleum ether/diethyl ether/acetic acid (80:20:1, by volume) was used (Mangold, Thin Layer Chromatography—A Laboratory Handbook (Springer-Verlag, New York), 1969).
After the TLC plate was activated, the sample extracts were spotted onto the activated plate. As a general rule, samples were spotted at an estimated concentration such that no single lipid class was present at more than 25 jig per centimeter of plate width following chromatography. This ensured that the plate was not overloaded and minimized the risk of cross-contamination between lipid classes (cross-contamination is readily identified during sample analysis as each lipid class contains unique internal standards). […]

C[C@H](Cc1ccc2c(c1)OC(C(=O)[O-])(C(=O)[O-])O2)NC[C@H](O)c1cccc(Cl)c1.[Na+].[Na+] [CL316,243]
Total n9 (Liver, lipid class PS/I): 5.4 percentage of total fatty acids | 14:0 (Liver, lipid class TAG): 1.1 percentage of total fatty acids | 16:0 (Liver, lipid class TAG): 32.1 percentage of total fatty acids | 16:1n7 (Liver, lipid class TAG): 3.2 percentage of total fatty acids | 18:0 (Liver, lipid class TAG): 3.3 percentage of total fatty acids | 18:1n7 (Liver, lipid class TAG): 2.9 percentage of total fatty acids | 18:1n9 (Liver, lipid class TAG): 34.1 percentage of total fatty acids | 14:0 (Plasma, CE): 21.2 nanomoles per gram | 16:0 (Plasma, CE): 114.4 nanomoles per gram | 16:1n7 (Plasma, CE): 84.9 nanomoles per gram | 18:0 (Plasma, CE): 16.5 nanomoles per gram | 18:1n7 (Plasma, CE): 13.5 nanomoles per gram | 18:1n9 (Plasma, CE): 194.2 nanomoles per gram | Saturates (Plasma, CE): 162.9 nanomoles per gram | Total n7 (Plasma, CE): 98.4 nanomoles per gram | Total n9 (Plasma, CE): 198.7 nanomoles per gram | Total nMole of FA (Plasma, CE): 2584.1 nanomoles per gram | 14:0 (Plasma, FFA): 22.1 nanomoles per gram | 16:0 (Plasma, FFA): 102.3 nanomoles per gram | 16:1n7 (Plasma, FFA): 15.4 nanomoles per gram | 18:0 (Plasma, FFA): 36.9 nanomoles per gram | 18:1n7 (Plasma, FFA): 9.8 nanomoles per gram | 18:1n9 (Plasma, FFA): 160.6 nanomoles per gram | Saturates (Plasma, FFA): 167.7 nanomoles per gram | Total n7 (Plasma, FFA): 25.2 nanomoles per gram | Total n9 (Plasma, FFA): 163.1 nanomoles per gram | Total nMole of FA (Plasma, FFA): 424.7 nanomoles per gram | 14:0 (Plasma, LysoPC): 2.9 nanomoles per gram | 16:0 (Plasma, LysoPC): 241.6 nanomoles per gram | 16:1n7 (Plasma, LysoPC): 4.8 nanomoles per gram | 18:0 (Plasma, LysoPC): 127.4 nanomoles per gram | 18:1n7 (Plasma, LysoPC): 6.9 nanomoles per gram | 18:1n9 (Plasma, LysoPC): 47.5 nanomoles per gram | Saturates (Plasma, LysoPC): 381.9 nanomoles per gram | Total n7 (Plasma, LysoPC): 11.8 nanomoles per gram | Total n9 (Plasma, LysoPC): 49.4 nanomoles per gram | Total nMole of FA (Plasma, LysoPC): 643.1 nanomoles per gram | 14:0 (Plasma, PC): 5.5 nanomoles per gram | 16:0 (Plasma, PC): 1121.4 nanomoles per gram | 16:1n7 (Plasma, PC): 15.3 nanomoles per gram | 18:0 (Plasma, PC): 670.9 nanomoles per gram | 18:1n7 (Plasma, PC): 58.8 nanomoles per gram | 18:1n9 (Plasma, PC): 309.6 nanomoles per gram | Saturates (Plasma, PC): 1820.6 nanomoles per gram | Total n7 (Plasma, PC): 74.0 nanomoles per gram | Total n9 (Plasma, PC): 320.0 nanomoles per gram | Total nMole of FA (Plasma, PC): 1928.9 nanomoles per gram | 14:0 (Plasma, PE): 4.1 nanomoles per gram | 16:0 (Plasma, PE): 33.9 nanomoles per gram | 16:1n7 (Plasma, PE): 3.3 nanomoles per gram | 18:0 (Plasma, PE): 28.2 nanomoles per gram | 18:1n7 (Plasma, PE): 2.5 nanomoles per gram | 18:1n9 (Plasma, PE): 31.5 nanomoles per gram | Saturates (Plasma, PE): 74.0 nanomoles per gram | Total n7 (Plasma, PE): 5.8 nanomoles per gram | Total n9 (Plasma, PE): 33.4 nanomoles per gram | Total nMole of FA (Plasma, PE): 106.7 nanomoles per gram | 14:0 (Plasma, PL): 7.6 nanomoles per gram | 16:0 (Plasma, PL): 1315.0 nanomoles per gram | 16:1n7 (Plasma, PL): 20.3 nanomoles per gram | 18:0 (Plasma, PL): 847.2 nanomoles per gram | 18:1n7 (Plasma, PL): 69.7 nanomoles per gram | 18:1n9 (Plasma, PL): 380.8 nanomoles per gram | Saturates (Plasma, PL): 2221.2 nanomoles per gram | Total n7 (Plasma, PL): 90.0 nanomoles per gram | Total n9 (Plasma, PL): 429.4 nanomoles per gram | Total nMole of FA (Plasma, PL): 2464.5 nanomoles per gram | 14:0 (Plasma, TAG): 17.6 nanomoles per gram | 16:0 (Plasma, TAG): 219.3 nanomoles per gram | 16:1n7 (Plasma, TAG): 33.1 nanomoles per gram | 18:0 (Plasma, TAG): 45.7 nanomoles per gram | 18:1n7 (Plasma, TAG): 23.7 nanomoles per gram | 18:1n9 (Plasma, TAG): 268.3 nanomoles per gram | Saturates (Plasma, TAG): 295.4 nanomoles per gram | Total n7 (Plasma, TAG): 56.8 nanomoles per gram | Total n9 (Plasma, TAG): 276.2 nanomoles per gram | Total nMole of FA (Plasma, TAG): 344.8 nanomoles per gram | 14:0 (Plasma, lipid class CE): 0.8 percentage of total fatty acids | 16:0 (Plasma, lipid class CE): 4.5 percentage of total fatty acids | 16:1n7 (Plasma, lipid class CE): 3.2 percentage of total fatty acids | 18:0 (Plasma, lipid class CE): 0.7 percentage of total fatty acids | 18:1n7 (Plasma, lipid class CE): 0.5 percentage of total fatty acids | 18:1n9 (Plasma, lipid class CE): 7.5 percentage of total fatty acids | 14:0 (Plasma, lipid class FFA): 5.7 percentage of total fatty acids | 16:0 (Plasma, lipid class FFA): 28.1 percentage of total fatty acids | 16:1n7 (Plasma, lipid class FFA): 3.2 percentage of total fatty acids | 18:0 (Plasma, lipid class FFA): 10.0 percentage of total fatty acids | 18:1n7 (Plasma, lipid class FFA): 2.1 percentage of total fatty acids | 18:1n9 (Plasma, lipid class FFA): 31.0 percentage of total fatty acids | 14:0 (Plasma, lipid class LY): 0.5 percentage of total fatty acids | 16:0 (Plasma, lipid class LY): 37.8 percentage of total fatty acids | 16:1n7 (Plasma, lipid class LY): 0.7 percentage of total fatty acids | 18:0 (Plasma, lipid class LY): 20.1 percentage of total fatty acids | 18:1n7 (Plasma, lipid class LY): 1.0 percentage of total fatty acids | 18:1n9 (Plasma, lipid class LY): 7.2 percentage of total fatty acids | 14:0 (Plasma, lipid class PC): 0.1 percentage of total fatty acids | 16:0 (Plasma, lipid class PC): 29.0 percentage of total fatty acids | 16:1n7 (Plasma, lipid class PC): 0.4 percentage of total fatty acids | 18:0 (Plasma, lipid class PC): 17.5 percentage of total fatty acids | 18:1n7 (Plasma, lipid class PC): 1.5 percentage of total fatty acids | 18:1n9 (Plasma, lipid class PC): 7.9 percentage of total fatty acids | 14:0 (Plasma, lipid class PE): 1.9 percentage of total fatty acids | 16:0 (Plasma, lipid class PE): 16.1 percentage of total fatty acids | 16:1n7 (Plasma, lipid class PE): 1.4 percentage of total fatty acids | 18:0 (Plasma, lipid class PE): 13.5 percentage of total fatty acids | 18:1n7 (Plasma, lipid class PE): 1.1 percentage of total fatty acids | 18:1n9 (Plasma, lipid class PE): 13.1 percentage of total fatty acids | 14:0 (Plasma, lipid class PL): 0.2 percentage of total fatty acids | 16:0 (Plasma, lipid class PL): 26.6 percentage of total fatty acids | 16:1n7 (Plasma, lipid class PL): 0.4 percentage of total fatty acids | 18:0 (Plasma, lipid class PL): 17.3 percentage of total fatty acids | 18:1n7 (Plasma, lipid class PL): 1.4 percentage of total fatty acids | 18:1n9 (Plasma, lipid class PL): 7.7 percentage of total fatty acids | 14:0 (Plasma, lipid class TAG): 1.7 percentage of total fatty acids | 16:0 (Plasma, lipid class TAG): 21.1 percentage of total fatty acids | 16:1n7 (Plasma, lipid class TAG): 3.2 percentage of total fatty acids | 18:0 (Plasma, lipid class TAG): 4.4 percentage of total fatty acids | 18:1n7 (Plasma, lipid class TAG): 2.3 percentage of total fatty acids | 18:1n9 (Plasma, lipid class TAG): 25.8 percentage of total fatty acids | palmitoleic acid concentrations in most lipid classes in heart, liver, adipose and plasma (male inbred NON mice, 0.001% CL316,243 in chow 4 weeks, vs controls (Tables 7 and 8)): substantial decrease
